The text below walks through data of paper PMC4973850, “Molecular structure‐function relationship of dietary polyphenols for inhibiting VEGF‐induced VEGFR‐2 activity” (Molecular Nutrition & Food Research, 2015).

In the assay the target is T1, VEGF (human recombinant VEGFA165); VEGF‐induced VEGFR‐2 activation in HUVECs (Homo sapiens, UniProt P15692).
T1 construct: purchased R&D Systems, Abingdon, UK
T1 sequence (P15692 1-191 isoform P15692-4): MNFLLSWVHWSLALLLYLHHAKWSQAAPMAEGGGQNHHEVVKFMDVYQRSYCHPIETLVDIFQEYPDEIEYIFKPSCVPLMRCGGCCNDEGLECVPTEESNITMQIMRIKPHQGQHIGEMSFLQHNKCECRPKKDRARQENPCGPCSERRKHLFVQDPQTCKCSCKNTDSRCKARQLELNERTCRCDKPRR
The assay is described as follows: Inhibition of VEGF‐induced VEGFR‐2 phosphorylation in HUVECs after pre‐incubating VEGF with polyphenol (Phospho‐VEGFR‐2 Tyr1175 ELISA).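 On all read-outs here: sandwich ELISA of VEGFR-2 phosphorylated at Tyr1175 in lysates of confluent HUVECs, with VEGF alone and DMSO vehicle (≤0.1%) as control incubations.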 It counts as cell-based. As to conditions: for Inhibition (%): HUVECs; for IC50 (μM) / IC50: VEGF 25 ng/mL pre‐incubated 5 min with polyphenol, then HUVECs 5 min, phospho‐VEGFR‐2 ELISA, 95% confidence intervals in parentheses.

With `O=c1c(O)c(-c2ccccc2)oc2ccccc12` [3‐hydroxyflavone], the “Inhibition (%)” value (at 100 μM polyphenol) is on record as 52.8 (100 μM) %.

On to `O=c1cc(-c2ccc(O)c(O)c2)oc2c(O)c(O)ccc12` [3′,4′,7,8‐tetrahydroxyflavone], for which the “Inhibition (%)” value (at 100 μM polyphenol) is 63.2 (100 μM) %.

Take `O=c1cc(-c2ccccc2)oc2cc(O)ccc12` [7‐hydroxyflavone]: under “at 100 μM polyphenol”, the “Inhibition (%)” value is “Ineffective (100 μM)”.

On to `Oc1cc(O)c2c(c1)O[C@H](c1ccc(O)c(O)c1)[C@@H](O)C2` [(+)‐Catechin], for which the “IC50 (μM)” value was 214.7 (178. 2–258.7) μM. In addition, the 50% inhibitory concentration (IC50) (listed as (+)‐catechin) is 215000 nM.

For the compound `O=C1c2ccc(O)cc2O[C@H](c2cc(O)c(O)c(O)c2)[C@H]1O` [(+)‐Dihydrorobinetin], the “Inhibition (%)” value (at 50 μM polyphenol) is listed as 66%.

Consider `Oc1cc(O)c2c(c1)O[C@H](c1ccc(O)c(O)c1)[C@H](O)C2` [(−)‐Epicatechin], for which the “Inhibition (%)” value is, setting by setting: (at 200 μM polyphenol (highest concentration tested)) “Ineffective (200 μM)”; (at 200 μM polyphenol (highest concentration tested), listed as (−)‐epicatechin) “not an inhibitor”; (at 200 μM polyphenol (highest concentration tested), listed as epicatechin) “ineffective”.

On to `O=C(O)/C=C/c1ccc(O)c(O)c1` [Caffeic acid], for which, under “at 50 μM polyphenol”, the “Inhibition (%)” value is recorded as “Ineffective”.

As to `O=C(/C=C/c1ccc(O)c(O)c1)O[C@@H]1C[C@](O)(C(=O)O)C[C@@H](O)[C@H]1O` [Chlorogenic acid], the “Inhibition (%)” value (at 50 μM polyphenol) is reported as “Ineffective”.

Regarding `O=c1cc(-c2ccccc2)oc2cc(O)cc(O)c12` [Chrysin], the “Inhibition (%)” value (at 100 μM polyphenol) is 58.6 (100 μM) %.

As for `Oc1cc(O)c2cc(O)c(-c3ccc(O)c(O)c3)[o+]c2c1` [Cyanidin], the “IC50” value was 1050 nM and the “IC50 (μM)” value was 1.053 (0.764–1.453) μM. Besides, under “datapoint of Fig. 3B”, the “log IC50” value worked out at 0.022. For the same compound, the “fold lower IC50 compared with (+)‐catechin” value (ratio of IC50 values) was 200 fold.

For the compound `O=C(O[C@@H]1Cc2c(O)cc(O)cc2O[C@@H]1c1ccc(O)c(O)c1)c1cc(O)c(O)c(O)c1` [ECG, epicatechin gallate], the “IC50 (μM)” value is listed as 0.16 (0.150–0.183) μM.

In the case of `Oc1cc(O)c2c(c1)O[C@H](c1cc(O)c(O)c(O)c1)[C@H](O)C2` [EGC, epigallocatechin], the “IC50 (μM)” value was 42.9 (36.96–49.97) μM.

`O=C(O[C@@H]1Cc2c(O)cc(O)cc2O[C@@H]1c1cc(O)c(O)c(O)c1)c1cc(O)c(O)c(O)c1` [EGCG, epigallocatechin gallate]: the “IC50 (μM)” value is given as 0.088 (0.078–0.100) μM. Further, the “fold lower IC50 than ECG” value (ratio of IC50 values) is 2 fold.

As to `O=C1C[C@@H](c2ccc(O)c(O)c2)Oc2cc(O)cc(O)c21` [Eriodictyol], the “Inhibition (%)” value (at 50 μM polyphenol) is given as 20%.

With `O=c1cc(-c2ccccc2)oc2ccccc12` [Flavone], the “Inhibition (%)” value is, setting by setting: (at 100 μM polyphenol) “Ineffective (100 μM)”; (at 100 μM polyphenol, listed as flavone) “ineffective”.

For the compound `O=c1c(O)c(-c2ccccc2)oc2cc(O)cc(O)c12` [Galangin], the “Inhibition (%)” value (at 50 μM polyphenol) came out at 85%.

`O=C(O)c1cc(O)c(O)c(O)c1` [Gallic acid]: the “Inhibition (%)” value (at 50 μM polyphenol) was determined as 32%.

On to `O=c1c(-c2ccc(O)cc2)coc2cc(O)cc(O)c12` [Genistein], for which the “Inhibition (%)” value (at 50 μM polyphenol) stood at 22%.

`O=c1c(O[C@@H]2O[C@H](CO)[C@@H](O)[C@H](O)[C@H]2O)c(-c2ccc(O)c(O)c2)oc2cc(O)cc(O)c12` [Hirsutrin]: the “Inhibition (%)” value by setting is: (at 50 μM polyphenol) “Ineffective”; (at 50 μM polyphenol, listed as hirsutrin) “completely ineffective”.

As to `O=c1c(O[C@@H]2O[C@H](CO)[C@H](O)[C@H](O)[C@H]2O)c(-c2ccc(O)c(O)c2)oc2cc(O)cc(O)c12` [Hyperoside], the “Inhibition (%)” value (at 50 μM polyphenol) is listed as “Ineffective” and the “Inhibition (%)” value (at 50 μM polyphenol, listed as hyperoside) is listed as “completely ineffective”.

With `COc1cc(-c2oc3cc(O)cc(O)c3c(=O)c2O)ccc1O` [Isorhamnetin], the “IC50 (μM)” value is 9.053 (7.676–10.68) μM. For the same compound, the “fold higher IC50 than quercetin” value (ratio of IC50 values) was 12 fold.

As to `O=c1c(O)c(-c2ccc(O)cc2)oc2cc(O)cc(O)c12` [Kaempferol], the “IC50 (μM)” value is recorded as 9.341 (7.749–11.26) μM.

As to `O=c1cc(-c2ccc(O)c(O)c2)oc2cc(O)cc(O)c12` [Luteolin], the “IC50 (μM)” value is listed as 7.46 (6.592–8.446) μM.

Turning to `COC(=O)c1cc(O)c(O)c(O)c1` [Methyl gallate], the “Inhibition (%)” value (at 100 μM polyphenol) was “Ineffective (100 μM)”.

Turning to `O=c1c(O)c(-c2ccc(O)cc2O)oc2cc(O)cc(O)c12` [Morin], the “IC50 (μM)” value is listed as 1.482 (1.357–1.618) μM. Where the note is “ratio of IC50 values”, the “fold higher IC50 than quercetin” value is on record as “about 2 fold”.

For `O=c1c(O)c(-c2cc(O)c(O)c(O)c2)oc2cc(O)cc(O)c12` [Myricetin], the “IC50 (μM)” value was 0.121(0.102–0.144) μM. The “fold lower IC50 than EGC” value (ratio of IC50 values) was more than 300 fold.

As to `O=C1C[C@@H](c2ccc(O)cc2)Oc2cc(O)cc(O)c21` [Naringenin], under “at 100 μM polyphenol”, the “Inhibition (%)” value is 88.5 (100 μM) %.

On to `O=c1c(-c2ccc(O)c(O)c2)coc2cc(O)cc(O)c12` [Orobol], for which the “IC50 (μM)” value is listed as 3.311 (3.047–3.598) μM. Besides, the “IC50” value (listed as orobol) amounted to 3310 nM. Besides, where the note is “ratio of IC50 values”, the “fold lower IC50 compared with luteolin” value turned out to be 2 fold.

In the case of `O=C(CCc1ccc(O)cc1)c1c(O)cc(O)cc1O[C@@H]1O[C@H](CO)[C@@H](O)[C@H](O)[C@H]1O` [Phloridzin], the “Inhibition (%)” value (at 50 μM polyphenol) is “Ineffective” and the “Inhibition (%)” value (at 50 μM polyphenol, listed as phloridzin) is reported as “completely ineffective”.

As for `OC[C@H]1O[C@@H](Oc2cc(O)cc(/C=C/c3ccc(O)cc3)c2)[C@H](O)[C@@H](O)[C@@H]1O` [Piceid], under “at 50 μM polyphenol”, the “Inhibition (%)” value was found to be 28%.

In the case of `O=c1c(O)c(-c2ccc(O)c(O)c2)oc2cc(O)c(O)c(O)c12` [Quercetagetin], the “IC50 (μM)” value is reported as 0.096 (0.083–0.109) μM. Also, the “fold more potent VEGF inhibitor than quercetin” value (ratio of IC50 values) is on record as “sevenfold”.

`O=c1c(O)c(-c2ccc(O)c(O)c2)oc2cc(O)cc(O)c12` [Quercetin]: the “IC50 (μM)” value is reported as 0.754 (0.674–0.842) μM. Moreover, for the setting “listed as quercetin”, the “IC50” value was 750 nM. In addition, where the note is “ratio of IC50 values”, the “fold lower IC50 compared with (+)‐catechin” value is on record as more than 250 fold and the “fold lower IC50 compared with luteolin” value was 10 fold.

For `C[C@@H]1O[C@@H](Oc2c(-c3ccc(O)c(O)c3)oc3cc(O)cc(O)c3c2=O)[C@H](O)[C@H](O)[C@H]1O` [Quercitrin], the “Inhibition (%)” value was “Ineffective” (at 50 μM polyphenol) and “completely ineffective” (at 50 μM polyphenol, listed as quercitrin).

For the compound `COc1cc(O)c2c(=O)c(O)c(-c3ccc(O)c(O)c3)oc2c1` [Rhamnetin], the “IC50 (μM)” value is reported as 0.547 (0.527–0.568) μM.

As to `C[C@@H]1O[C@@H](OC[C@H]2O[C@@H](Oc3c(-c4ccc(O)c(O)c4)oc4cc(O)cc(O)c4c3=O)[C@H](O)[C@@H](O)[C@@H]2O)[C@H](O)[C@H](O)[C@H]1O` [Rutin], the “Inhibition (%)” value is reported as “Ineffective” (at 50 μM polyphenol) and “completely ineffective” (at 50 μM polyphenol, listed as rutin).

For `COc1ccc(-c2cc(=O)c3c(OC)c(OC)c(OC)cc3o2)cc1OC` [Sinensetin], the “Inhibition (%)” value is, setting by setting: (at 100 μM polyphenol) “Ineffective (100 μM)”; (at 100 μM polyphenol, listed as sinensetin) “inhefective”.

As for `COc1ccc(-c2oc3cc(O)cc(O)c3c(=O)c2O)cc1O` [Tamarixetin], the “Inhibition (%)” value (at 100 μM polyphenol) is 100 (100 μM) %.

`O=C1c2c(O)cc(O)cc2O[C@H](c2ccc(O)c(O)c2)[C@H]1O` [Taxifolin]: the “Inhibition (%)” value (at 100 μM polyphenol) is recorded as 12.3 (100 μM) %.
